Assay results published in US20260185163A1, “MEN1 MUTATIONS AND USES THEREOF” (DANA-FARBER CANCER INSTITUTE, INC., priority 2022, published 2026).

Experiments:
M327I vs WT Menin = test: fluorescence-based kinetic binding assay (HTRF jump dilution, off-rate); parameters: species or system human
Procedure: Off-rates for test compounds were determined using jump dilution experiments in the HTRF assay measuring FITC-MLL4-43 binding to HIS-Menin. Briefly, test compounds (30 nM) were pre-incubated for 1 hr with 30 nM HIS-Menin prebound to 30 nM Lanthascreen anti-HIS-Tb antibodies in 10 μL of menin assay buffer (50 mM Tris, pH 7.4, 50 mM NaCl, 5 mM DTT, 0.01% TX100) containing 0.02% fatty acid free BSA. After pre-incubation, 1 μL of the assay mixture was transferred to 100 μL of menin assay buffer containing 30 nM FITC-MLL-4-43 (1000×Ki) in white, opaque 384-well plates. The HTRF signal was measured at various times using a 320 nm excitation and 520 and 620 nm emission wavelengths with a 50 us delay and a 200 us window with the gain set to 2100 using a BMGlabTech ClarioStar Plus plate reader. The data was normalized to % inhibition at each time point, where 0% is the HTRF signal in the presence of 0.3 nM HIS-menin without test compound, and 100% is the HTRF signal in the absence of HIS-menin. The resulting % inhibition values were fit to a one-site exponential dissociation model using XlFit to determine the dissociation rate.

[1] = system: Menin-MLL1 target genes and myeloid differentiation programs in MEN1-M327I mutant MV4;11 cells; test: RNA-sequencing, gene expression changes; type: cell-based, human; conditions: 5 μM
Procedure: Total RNA was isolated from cell lines or mouse cell depleted PDX material using the RNeasy™ Mini Kit (QIAGEN). Quality control was performed using RNA-Tape™ (Agilent) and all samples used for sequencing passed QC with a RINe-score greater than 8. Poly(A) mRNA enrichment and library preparation was performed using the NEBNext Poly(A) mRNA Magnetic Isolation Module and NEBNext Ultra II RNA Library Prep kit (New England BioLabs) according to the manufacturer's instructions. Sequencing was done on an Illumina NextSeq500 platform as 37 bp paired end sequencing. Raw Illumina NextSeq BCL files were converted to FASTQ using Illumina bcl2fastq. Reads were aligned to human GRCh38/hg38 genome using STAR 2.7.5. Aligned BAM files were sorted, duplicate reads marked and removed, and deduplicated BAMs indexed using Broad picard tools v2.9.4. Raw per-gene counts were calculated with HTSeq-count (v.0.6.1pl). Differential RNA-seq expression was calculated using the BioConductor DESeq2 package (v1.24,0), using raw unnormalized per-gene counts from deduplicated BAMs. Z-scores for the generation of heatmaps were calculated from regularized gene-counts (from DeSeq2 package).

[2] = system: Menin on chromatin in MV4;11 MEN1-WT cells; test: ChIP-Seq of Menin chromatin occupancy; type: cell-based, human; conditions: 100 nM
Procedure: (§1) Cells were sequentially cross-linked using 2 mM DSG disuccinimidyl glutarate for 30 min and a final concentration of 1% formaldehyde for 10 min at room temperature (20-25° C.) and stopped with 125 mM glycine. Cells were lysed in lysis buffer (20 mM Tris-HCl at pH 7.5. 300 mM NaCl, 2 mM EDTA, 0.5% NP40, 1% Triton X-100, 1 mM PMSF, PIC) and incubated on ice for 30 min. The resuspended cells were then dounced in an ice-cold homogenizer. Nuclear pellets were collected and resuspended in shearing buffer (0.1% SDS, 0.5% N-lauroylsarcosine, 1% Triton X-100, 10 mM Tris-HCl at pH 8.1, 100 mM NaCl, 1 mM EDTA. 1 mM PMSF, PIC). Isolated chromatin was fragmented to an average size of 200-600 bp with a bioruptor (Diagenode). Precleared chromatin was immunoprecipitated overnight at 4° C. and immunocomplexes were collected with protein A Dynabeads. […] Reads were aligned to human GRCh38/hg38 genome using STAR 2.7.5. Aligned BAM files were sorted, duplicate reads marked and removed, and deduplicated BAMs indexed using Broad picard tools v2.9.4. Signal intensities around transcription start sites (TSS, +/−3000 bp) were quantified using BEDtools (v. 2.28.0) and data visualizations were produced using IGVtools (TDF signal pileups; v2.3.75) and ngs.plot (pileup heatmaps/torpedo plots). […]

[3] = system: Menin on chromatin in MV4;11 MEN1 M327I/M327I cells; test: ChIP-Seq of Menin chromatin occupancy; type: cell-based, human; conditions: 5 μM, M327I mutant
Procedure: as §1

CCN(C(=O)c1cc(F)ccc1Oc1cncnc1N1CC2(CCN(C[C@H]3CC[C@H](NS(=O)(=O)CC)CC3)CC2)C1)C(C)C [SNDX-5613, revumenib]
increase in the dissociation off rate (M327I vs WT Menin): > 30 fold | repression of Menin-MLL1 target genes and induction of myeloid differentiation programs [1]: only a partial response | displacement of Menin from chromatin [2]: near-complete and global displacement of Menin from chromatin | Menin chromatin occupancy [3]: partial decrease in Menin chromatin occupancy
